This is an account of results in patent US7148204B2, “Antisense modulation of bcl-x expression” (Isis Pharmaceuticala, Inc., priority 1998, dated 2006).

In the oligonucleotide strings, read from the 5' end, every base follows the letter of its sugar. An asterisk marks phosphorothioate; unmarked linkages are phosphodiester. Other units and linkages are bracketed, terminal groups are in braces. A string of capitals states the bases alone. e = 2'-O-(2-methoxyethyl) (MOE); [5mC] = 5-methylcytosine; d = 2'-deoxy (DNA)

In data set [1] the test system is bcl-xl protein. The experiment in a line: Immunoblot of bcl-xl protein in CEM cells. The format is cell-based, human. The method, then: Postnuclear detergent lysates were prepared as described by Reed et al. (Cancer Res., 1991, 51, 6529–6538), and the protein concentration was determined using a Bradford method protein assay kit (Bio-Rad, Hercules, Calif.). Protein (20 μg) was loaded in each lane, followed by electrophoresis on a 12% sodium dodecyl sulfate-polyacrylamide gel, followed by immunoblotting (Winston et al., 1993). The primary antibody was a 0.4 μg/ml dilution of the mouse monoclonal anti-human bcl-2 (clone 124, Dako, Carpinteria, Calif.), a 4.0 μg/ml dilution of the rabbit polyclonal anti-human bcl-xs/l (Dako), or a 0.3 μg/ml dilution of rabbit polyclonal anti-human Bax (N-20, Santa Cruz Biotechnology, Santa Cruz, Calif.). For development and STORM fluorescent imaging, the secondary antibody was peroxidase-conjugated sheep anti-mouse or donkey anti-rabbit (Amersham, Little Chalfort, UK). Chemiluminescence imaging and quantification were preformed using the STORM instrument and ImageQuant software (Molecular Dynamics, Sunnyvale, Calif.).

Data set [2] deals with CEM-C7 cells. Description: Viable cell counts of CEM cells (propidium iodide exclusion, flow cytometry). The format is cell-based, human. Conditions: CEM cells; for viability by propidium iodide exclusion: 20 μM electroporation. How it is done: CEM-C7 cells (Norman et al., 1978), a glucocortocoid sensitive clone of the human T-lymphoblastic cell line CEM, were cultured between 5×10^4 to 10^6 cells/ml in RPMI 1640 medium containing 10% heat-inactivated fetal bovine serum (FBS), streptomycin, penicillin G, 15 mM HEPES, 2 mM sodium pyruvate, at 37° C. in a humid, 5% CO2 incubator. Viable cell counts were performed by propidium iodide staining and flow cytometry.
CEM-C7 cells were electroporated with the indicated concentrations of oligonucleotides at 150 volts, 1,700 microFaraday (μF), and a resistance setting of 5 with a BTX electroporation apparatus (Genetronics, San Diego, Calif.) in 2-mm gap cuvettes containing 5×10^6 cells in 200 μl RPMI plus 20% FBS on ice. Cells were left on ice for 10 minutes, then plated in 5 ml complete media.
In general terms: Flow cytometry measures light scatter and fluorescence of single cells or particles in a stream.

Data set [3] relates to human bcl-x mRNA. The experiment in a line: Northern blot analysis of bcl-x mRNA levels in A549 cells. It is filed as cell-based. Conditions: 200 nM chimeric oligonucleotide. How it is done:
Eighteen hours after antisense treatment, cell monolayers were washed twice with cold PBS and lysed in 1 mL RNAZOL™ (TEL-TEST “B” Inc., Friendswood, Tex.). Total RNA was prepared following manufacturer's recommended protocols. Twenty micrograms of total RNA was fractionated by electrophoresis through 1.2% agarose gels containing 1.1% formaldehyde using a MOPS buffer system (AMRESCO, Inc. Solon, Ohio). RNA was transferred from the gel to HYBOND™-N+ nylon membranes (Amersham Pharmacia Biotech, Piscataway, N.J.) by overnight capillary transfer using a Northern/Southern Transfer buffer system (TEL-TEST “B” Inc., Friendswood, Tex.). RNA transfer was confirmed by UV visualization. Membranes were fixed by UV cross-linking using a STRATALINKER™ UV Crosslinker 2400 (Stratagene, Inc, La Jolla, Calif.).
Membranes were probed using QUICKHYB™ hybridization solution (Stratagene, La Jolla, Calif.) using manufacturer's recommendations for stringent conditions with an 822-base pair bcl-x specific probe prepared by PCR from bases 33–855 of human bcl-xl sequence (Boise et al., 1993, Cell 74:597–608; GenBank accession no. L20121). To normalize for variations in loading and transfer efficiency membranes were stripped and probed for glyceraldehyde-3-phosphate dehydrogenase (GAPDH) RNA (Clontech, Palo Alto, Calif.). Hybridized membranes were visualized and quantitated using a PHOSPHORIMAGER™ and IMAGEQUANT™ Software V3.3 (Molecular Dynamics, Sunnyvale, Calif.). Data was normalized to GAPDH levels in untreated controls.
Oligonucleotides were tested by Northern blot analysis as described in Example 14. Oligonucleotides were tested in A549 cells at a concentration of 400 nM. The results are Table 2:
Oligonucleotides were tested by Northern blot analysis as described in Example 14. Chimeric oligonucleotides were in A549 cells at a concentration of 200 nM. Where present, “N.D.” indicates “not determined”.

Data set [4] has as its system bcl-xs mRNA. Description: RNase protection assay, bcl-xs mRNA in A549 cells. It is filed as cell-based, human. Also noted: concentration or dose not given beside the values. The settings on record: RPA. The text has this: (§1) The ribonuclease (RNase) protection assay is a sensitive and specific method for quantitating expression levels (Zinn, et al., Cell, 1983, 34:865–79). The method is based on the hybridization of a target RNA to an in vitro transcribed ^32P-labeled anti-sense RNA probe from a DNA template. RNase treatment follows, resulting in degradation of single-stranded RNA and excess probe. The probe and target RNA are resolved by denaturing polyacrylamide gel electrophoresis with the “protected” probe visualized using autoradiography or beta imaging equipment. Template sets can be purchased (PharMingen Inc., San Diego Calif.) which contain a series of biologically relevant templates, each of distinct length and each representing a sequence in a distinct mRNA species. Each template set is capable of detecting up to 11 unique gene messages in a single reaction mix in addition to one or more housekeeping genes, L32 and GAPDH, which serve as internal controls. These template sets allow for multiple determinations to be made from a single sample. Multi-probe RPA can be performed on total RNA preparations derived by standard methods, without further purification of poly-A+ RNA.
(§2) Oligonucleotides were evaluated for their respective effects on bcl-xs and bcl-xl mRNA levels along with total bcl-x mRNA levels, using the RIBOQUANT™ RNase protection kit (Pharmingen, San Diego Calif.). All assays were performed according to manufacturer's protocols. Briefly, multi-probe DNA template sets were used to generate antisense RNA transcripts radiolabeled with […]. The template set used for apoptosis genes was the human hAPO-2 set. These radiolabeled probes were hybridized overnight with typically 10 μg of total cellular RNA. The reaction mixture was then digested with single-strand RNases to generate the protected fragments which were electrophoresed through a 5% acrylamide/urea gel. Protected bands were visualized and quantitated using a PhosphorImager (Molecular Dynamics, Sunnyvale Calif.).
(§3) Human bcl-x has two forms, a long form known as bcl-xl and a short form known as bcl-xs. […] The protein of bcl-xl is similar in size and structure to bcl-2, and could inhibit cell death upon growth factor withdrawal. The protein of bcl-xs is 63 amino acids shorter than bcl-xl. It could inhibit the bcl-2 function, thus promoting programmed cell death (apoptosis). Oligonucleotides were evaluated for their respective effects on bcl-xs and bcl-xl mRNA levels along with total bcl-x mRNA levels, using the RIBOQUANT™ RNase protection kit (Pharmingen, San Diego Calif.). All assays were performed according to manufacturer's protocols.

Data set [5] has as its system bcl-xl mRNA. The experiment in a line: RNase protection assay, bcl-xl mRNA in A549 cells. The format is cell-based, human. Conditions: RPA.
Description: as §1, §2, §3
(§4) These oligonucleotides were tested for their inhibitory effects on bcl-xl and bcl-xs mRNA levels in A549 cells, as detected by RPA analysis. Oligonucleotide concentration was 200 nM.

Data set [6] has as its system bcl-xs/bcl-xl mRNA ratio. The experiment in a line: RNase protection assay, bcl-xs/bcl-xl mRNA ratio in A549 cells. Conditions: A549 cells, RPA; for bcl-xs/bcl-xl (%): no oligo 17.56; for bcl-xs/bcl-xl* (change from the control ratio 17.56): no oligo = 1. The format is cell-based, human.
Description: as §1, §2, §3, §4

Data set [7] has as its system total bcl-x mRNA. Description: RNase protection assay, total bcl-x mRNA in A549 cells. It is filed as cell-based, human. More on the design: % CONTROL total bcl-x: concentration or dose not given beside the values. The settings on record: RPA.
Description: as §1, §2, §3

Data set [8] relates to HUVEC. Description: Apoptosis of HUVEC (hypodiploid cells by flow cytometry). The format is cell-based, human. Conditions: for increase in cellular DNA fragmentation over background: agent alone at low dose: staurosporine 2 nM, C6-ceramide 5 μM. The method, then: Human umbilical vein endothelial cells (HUVEC) were obtained from Clonetics (San Diego Calif.) and cultivated in endothelial growth medium (EGM) supplemented with 10% fetal bovine serum. Cells were used between passages 2 and 5 and were used at approximately 80% confluency. Cells were washed three times with pre-warmed (37° C.) Opti-MEM™. Oligonucleotides were premixed with 10 μg/ml Lipofectin™ in Opto-MEM™ at an oligonucleotide concentration of 50 nM ISIS 16009. Cells were incubated with oligonucleotide for 4 hours at 37° C. after which the medium was removed and replaced with standard growth medium. Treatment with C6-ceramide (Calbiochem, San Diego Calif.), staurosporine (Calbiochem), or z-VAD.fmk (Calbiochem), if any, was done 24 hours after oligonucleotide treatment. […] Apoptotic cells with fragmented DNA were identified by flow cytometry analysis of hypodiploid cells.

As to “5′-TCACATTGGCGCTTAGCCGT-3′ (chemistry not given here) [ISIS 16971, reference compound]”, the “level of bcl-xl protein” value in data set [1] is “no effect”. In addition, the “viability by propidium iodide exclusion” value turned out to be 70% in data set [2] (48 hours) and 82% in data set [2] (72 hours). Besides, the “viable cell count at the highest concentration” value in data set [2] (20 hours after electroporation) is “started to decrease”.
For the compound “16012 (antisense e[5mC]*e[5mC]*eA*eG*e[5mC]*dC*dG*dC*dC*dG*dT*dT*dC*dT*dC*e[5mC]*eT*eG*eG*eA) [compound 16012]”, in data set [3], the “% CONTROL (bcl-x mRNA levels)” value was determined as 30% and the “% INHIB (bcl-x mRNA levels)” value was 70%. Besides, the “% CONTROL bcl-xs” value in data set [4] amounted to 48%. Also, the “% CONTROL bcl-xl” value in data set [5] worked out at 63%. In data set [6], the “bcl-xs/bcl-xl (%)” value amounted to 13.17% and the “bcl-xs/bcl-xl* (change from the control ratio 17.56)” value is on record as 0.75. For the same compound, the “% CONTROL total bcl-x” value in data set [7] stood at 61%.
Turning to “16013 (antisense eT*eA*eG*eA*eG*dT*dT*dC*dC*dA*dC*dA*dA*dA*dA*eG*eT*eA*eT*e[5mC]) [compound 16013]”, in data set [3], the “% CONTROL (bcl-x mRNA levels)” value is recorded as 85% and the “% INHIB (bcl-x mRNA levels)” value was 15%. The “% CONTROL bcl-xs” value in data set [4] is on record as 60%. Besides, the “% CONTROL bcl-xl” value in data set [5] is given as 83%. Further, in data set [6], the “bcl-xs/bcl-xl (%)” value is 12.46% and the “bcl-xs/bcl-xl* (change from the control ratio 17.56)” value amounted to 0.71. Besides, the “% CONTROL total bcl-x” value in data set [7] is listed as 82%.
In the case of “22784 (antisense e[5mC]*e[5mC]*eA*eG*e[5mC]*e[5mC]*eG*e[5mC]*e[5mC]*eG*eT*eT*e[5mC]*eT*e[5mC]*e[5mC]*eT*eG*eG*eA) [compound 22784]”, the “% CONTROL bcl-xs” value in data set [4] was 204%. For the same compound, in data set [5], the “% CONTROL bcl-xl” value was 72%. Further, in data set [6], the “bcl-xs/bcl-xl (%)” value amounted to 48.63% and the “bcl-xs/bcl-xl* (change from the control ratio 17.56)” value stood at 2.77. Further, the “% CONTROL total bcl-x” value in data set [7] came out at 92%.
The matching figures for “22785 (antisense eG*e[5mC]*e[5mC]*eG*e[5mC]*e[5mC]*eG*eT*eT*e[5mC]*eT*e[5mC]*e[5mC]*eT*eG*eG*eA*eT*e[5mC]*e[5mC]) [compound 22785]”: 248%, 53%, 80.14%, 4.56 and 83%.
The matching figures for “23172 (antisense eG*eT*eT*e[5mC]*e[5mC]*eT*eG*eG*e[5mC]*e[5mC]*e[5mC]*eT*eT*eT*e[5mC]*eG*eG*e[5mC]*eT*e[5mC]) [compound 23172]”: 84%, 77%, 19.38%, 1.10 and 79%.
For “23174 (antisense e[5mC]*e[5mC]*eG*eG*e[5mC]*e[5mC]*eA*e[5mC]*eA*eG*eT*e[5mC]*eA*eT*eG*e[5mC]*e[5mC]*e[5mC]*eG*eT) [compound 23174]”, the “% CONTROL bcl-xs” value in data set [4] came to 56%. In addition, the “% CONTROL bcl-xl” value in data set [5] was 67%. For the same compound, in data set [6], the “bcl-xs/bcl-xl (%)” value was 14.93% and the “bcl-xs/bcl-xl* (change from the control ratio 17.56)” value is 0.85. For the same compound, the “% CONTROL total bcl-x” value in data set [7] was found to be 66%.
The matching figures for “23175 (antisense eT*eG*eT*eA*eG*e[5mC]*e[5mC]*e[5mC]*eA*eG*e[5mC]*eA*eG*eA*eA*e[5mC]*e[5mC]*eA*e[5mC]*eG) [compound 23175]”: 52%, 82%, 11.44%, 0.65 and 78%.
On to `CCCCCCCCCCCCC/C=C/[C@@H](O)[C@H](CO)NC(=O)CCCCC` [C6-ceramide], for which the “increase in cellular DNA fragmentation over background” value in data set [8] was “did not cause a significant increase”.
Still for that read-out and setting: for `CN[C@@H]1C[C@H]2O[C@@](C)([C@@H]1OC)n1c3ccccc3c3c4c(c5c6ccccc6n2c5c31)C(=O)NC4` [staurosporine] the value was “did not cause a significant increase”.
`COC(=O)CC[C@H](NC(=O)[C@H](CC(=O)OC)NC(=O)OCc1ccccc1)C(=O)N[C@H](C(=O)N[C@@H](CC(=O)OC)C(=O)CF)C(C)C` [z-DEVD.fmk]: in data set [8] (caspase inhibitor treatment), the “apoptosis caused by bcl-x inhibition, or bcl-x plus staurosporine or ceramide” value is recorded as “prevented”.
